In patent US20210079358A1, “ASSEMBLOID - 3D MIMETIC TISSUE STRUCTURE BASED ON PATIENT- DERIVED MULTIPLE CELL TYPES AND METHOD OF MANUFACTURING THE SAME” (POSTECH Research and Business Development Foundation, priority 2019, published 2021):
“Also recorded” adds a separate entry of the source.

Tests used:
[1] = test system: reconstituted bladder organoids with stroma; assay: Cell proliferation in reconstituted bladder organoids with stroma under Hh pathway manipulation; format: cell-based, mouse; settings: 50 μM Vismodegib or 100 nM SAG vs DMSO, 7 days
Description: (§1) To generate normal bladder organoids with stroma, normal bladder organoids cultured for a long time (>6 months) were mixed with mouse embryonic fibroblasts (MEFs) and endothelial cells (HULEC, ATCC) at 3.75×10^4 cells/μL and 5×10^3 cells/μL, respectively, along with 3 to 4 μL of Matrigel. Before additional analysis, these bladder organoids with stroma were cultured in an organoid medium in a spinning bioreactor for 7 days. The 12-well version of the spinning bioreactor was manufactured by 3D printing according to the method described in Qian, X. et al. Brain-Region-Specific Organoids Using Mini-bioreactors for Modeling ZIKV Exposure. Cell 165, 1238-1254, doi:10.1016/j.cell. 2016.04.032 (2016). In brief, individual components such as a plate cover (Project MJP 2500, 3D Systems, USA), a rotating shaft (Single Plus, Cubicon, Korea), a fixed rod (Single Plus, Cubicon, Korea) and a gear (Single Plus, Cubicon, Korea) were printed using a 3D printer in a stackable version, and the components were assembled to manufacture a spinning bioreactor. […]
(§2) Normal bladder organoids were treated with 50 μM Vismodegib (Abmole), 100 nM SAG (Millipore) or DMSO and cultured in a spinning bioreactor for 7 days. […] Capase-3/7-stained cells in the bladder tumor organoids were counted based on green fluorescence signals, and dose-response curves were generated using GraphPad Prism ver.6. […]

[2] = test system: 3D bioprinted patient-derived bladder tumor organoids; assay: Tumor growth of 3D bioprinted patient-derived bladder tumor organoids treated with SAG or FK506; format: cell-based, human
Description: Tumor cells derived from patient-derived bladder tumor organoids were embedded in 40 μL Matrigel at a density of 5×10^5 cells/mL, and cultured in an organoid culture medium for 10 days. To prepare a bio-ink mixture for the reconstitution of tumor organoids with stroma by 3D bioprinting, 6 wells containing the embedded tumor organoids were treated with 0.5 mg/mL of a collagenase/dispase solution at 37° C. for 30 minutes, washed and centrifuged. The collected organoids were resuspended in 1 mL Matrigel (Growth Factor Reduced) containing patient-derived CAFs and HULECs at 4×10^7 cells/mL and 4×10^6 cells/mL, respectively. The reconstituted bio-ink was put into a sterilized 10 mL syringe with a 20-gauge needle, and stored on ice for less than 5 minutes before printing. A jet-type 3D printer (in vivo, Rokit, Korea) was used to reconstitute tumor organoids with stroma as described above. A G-code based script was written by Creator K software (Rokit, Korea) to print a 5×6 array of 10 μL drops. Each drop was dispensed on a parafilm at 8-mm intervals by extrusion. […]

[3] = test system: patient-derived bladder tumor organoids; assay: Growth of patient-derived bladder tumor organoids with or without tumor stroma treated with Hh or Bmp agonist; format: cell-based, human; settings: 300 nM SAG, 7 days
Description: Tumor tissues obtained from patients were washed with DPBS, and then washed twice with DMEM supplemented with 10% FBS. The washed tumors were minced and incubated in DMEM containing 10% FBS and collagenase I and II (20 mg/mL each) at 37° C. for 1 hour and ground for 5 minutes every 30 minutes. The isolated tissues were spun down at 1,500 rpm for 5 minutes, resuspended in ACK lysis buffer, and then incubated for 5 minutes at room temperature. Dissociated clusters were washed with DMEM containing 10% FBS and filtered through a 100 μm cell strainer. The dissociated cell clusters were spun down, resuspended in Matrigel (Growth Factor reduced) and plated in the middle of one well of a 6-well plate. The plated drop was solidified in an incubator at 37° C. for 15 minutes, and a 2.5 mL organoid medium [advanced DMEM/F-12 supplemented with 10 mM HEPES (pH 7.4), 10 mM nicotinamide, 1 mM N-acetyl-L-cysteine, GlutaMAX, 1% penicillin/streptomycin, 50 ng/mL mouse EGF, 0.5×B-27, 1 mM A8301 and 10 mM Y-27632] was added to the well. The medium was replaced once every 2 to 3 days. For passaging, 1 mg/mL collagenase/dispase was added to the medium, followed by incubation for 1 hour at 37° C. to digest the Matrigel. Subsequently, organoids were centrifuged at 1,500 rpm for 3 minutes, washed with PBS, and then spun down. Then, 0.05% trypsin-EDTA (Welgene) was added, organoids were incubated at 37° C. for 5 minutes, followed by mechanical grinding into small cells by pipetting. The organoids were passaged in a 1:3 or 1:4 ratio every 1 to 2 weeks.
To generate patient-derived tumor organoids with stroma, human tumor organoids were cultured for 10 days, and mixed with stromal components containing patient-derived CAFs and HULECs at concentrations of 5×10^4 cells/μL and 4×10^3 cells/μL, respectively, in Matrigel. And then, 5 μL drops of tumor organoids with stroma were cultured in an organoid medium in a spinning bioreactor for 7 days. […]

[4] = test system: three-layered miniature bladders; assay: Cell proliferation in three-layered miniature bladders under Hh pathway manipulation; format: cell-based, mouse; settings: 50 μM Vismodegib or 100 nM SAG vs DMSO, 7 days
Description: as §1, §2

[5] = test system: BBN-induced mouse bladder tumor organoids; assay: Growth of BBN-induced mouse bladder tumor organoids treated with SAG or FK506; format: cell-based; settings: reconstituted mouse tumor organoids with stroma
[6] = test system: 3D bioprinted patient-derived bladder tumor organoids; assay: Tumor cell apoptosis (caspase3) in 3D bioprinted patient-derived bladder tumor organoids treated with cisplatin; format: cell-based, human; settings: luminal and basal tumor-derived printed tumor organoids
Description: Normal bladder organoids were treated with 50 μM Vismodegib (Abmole), 100 nM SAG (Millipore) or DMSO and cultured in a spinning bioreactor for 7 days. Bladder tumor organoids were treated with 300 nM SAG, 5 μM FK506 (Cayman Chemical) or DMSO, and cultured in a spinning bioreactor for 7 days. Human bladder tumor organoids were cultured in an organoid medium for 7 days in a spinning bioreactor before treatment with chemotherapeutic drugs. Subsequently, tumor organoids were cultured for 48 hours in the presence of cisplatin (0, 0.2, 0.5, 1, 2, 5, 10, 50 and 100 μm, Sigma), gemcitabine (0, 0.2, 0.5, 1, 2, 5, 10, 50 and 100 μM, Sigma) or mitomycin C (0, 0.2, 0.5, 1, 2, 5, 10, 50 and 100 μM, Sigma). To produce dose-response curves for the three chemotherapeutic drugs, cell viability was assayed using a CellEvent™ Caspase-3/7 Green Detection Reagent (Thermo Fisher) according to the manufacturer's instructions. Forty-eight hours after treatment with cell therapeutic agent, bladder tumor organoids were fixed in 4% PFA at 4° C. for 15 minutes, washed with PBS three times, cultured in 30% sucrose overnight, and embedded in an OCT compound. Capase-3/7-stained cells in the bladder tumor organoids were counted based on green fluorescence signals, and dose-response curves were generated using GraphPad Prism ver.6. […]

SMILES	proliferation of epithelial cells and stromal cells [1]	tumor growth ([2]; bioprinted basal, only in the presence of stroma)	tumor growth ([2]; bioprinted, luminal P-1 tumor, regardless of tumor stroma)	growth of reconstituted tumor organoids of basal subtypes ([3]; basal P-2 and P-3, in the presence of tumor stroma)	response of basal subtype tumor organoids ([3]; basal subtype, without tumor stroma)	response of reconstituted luminal tumor organoids ([3]; reconstituted luminal tumor organoids)	proliferation of epithelial cells and stromal cells [4]	tumor growth [5]	tumor cell apoptosis response ([6]; reconstituted with tumor stroma)	tumor cell apoptosis ([6]; without tumor stroma)
CNC1CCC(N(Cc2cccc(-c3ccncc3)c2)C(=O)c2sc3ccccc3c2Cl)CC1 (stereo not drawn) [SAG]	significant increase	significantly inhibited	does not exhibit a significant change	significantly reduced	do not respond	do not respond	increases	inhibited	–	–
CS(=O)(=O)c1ccc(C(=O)Nc2ccc(Cl)c(-c3ccccn3)c2)c(Cl)c1 [Vismodegib]	significant decrease	–	–	–	–	–	decreases; also recorded: reduces	–	–	–
N.N.[Cl][Pt][Cl] [cisplatin]	–	–	–	–	–	–	–	–	significantly reduced	increased
